Source: US12187712B2, “Cardiac sarcomere inhibitors” (Cytokinetics, Inc., priority 2018, dated 2025)

target: T1, bovine cardiac myofibrils (Bos taurus, UniProt Q9BE39); experiment: Skinned myofibril ATPase assay (PK/LDH-coupled), CDMF75; format: biochemical; settings: inhibition of steady-state ATPase activity of bovine cardiac myofibrils at 75% Ca2+ activation (pCa75)
T1 construct: full-length cardiac myosin in the context of the native sarcomere, skinned myofibril assays were performed; from tissue; host or cells: bovine cardiac left ventricular tissue, detergent-skinned (Triton X-100) myofibrils
Experimental: To evaluate the effect of compounds on the ATPase activity of full-length cardiac myosin in the context of the native sarcomere, skinned myofibril assays were performed. Bovine cardiac myofibrils were obtained by homogenizing bovine cardiac left ventricular tissue in the presence of a detergent such as triton X-100. Such treatment removes membranes and a majority of the soluble cytoplasmic proteins but leaves intact the cardiac sarcomeric acto-myosin apparatus. Myofibril preparations retain the ability to hydrolyze ATP in an Ca^2+ regulated manner. ATPase activities of such myofibril preparations in the presence and absence of compounds were assayed at Ca^2+ concentrations activating to a defined fraction of the maximal rate (i.e., 25%, 75%). Small molecule agents were assessed for their ability to inhibit the steady-state ATPase activity of bovine cardiac myofibrils using pyruvate kinase and lactate dehydrogenase (PK/LDH)-coupled enzyme system. This assay regenerates myosin-produced ADP into ATP by oxidizing NADH, producing an absorbance change at 340 nm. Prior to testing small molecule agents, the bovine cardiac myofibrils were assessed for their calcium responsiveness and the calcium concentration that achieves either a 50% (pCa50) or 75% (pCa75) activation of the myofibril system was chosen as the final condition for assessing the inhibitory activity of the small molecule agents. All enzymatic activity was measured in a buffered solution containing 12 mM PIPES (piperazine-N,N′-bis(2-ethanesulfonic acid), 2 mM magnesium chloride at pH 6.8 (PM 12 buffer). Final assay conditions were 1 mg/mL of bovine cardiac myofibrils, 4 U/mL pyruvate kinase, 6 U/mL lactate dehydrogenase, 50 μM ATP, 0.1 mg/mL BSA (bovine serum albumin), 10 ppm antifoam, 1 mM DTT, 0.5 mM NADH, 1.5 mM PEP, 0.6 mM EGTA, and an amount of CaCl2 sufficient to achieve either 50% or 75% activation of the myofibril ATPase activity. Results for compounds tested are provided in Table A. Compounds tested were prepared in accordance with the synthetic procedures described herein.

T1 sequence (Q9BE39 whole entry): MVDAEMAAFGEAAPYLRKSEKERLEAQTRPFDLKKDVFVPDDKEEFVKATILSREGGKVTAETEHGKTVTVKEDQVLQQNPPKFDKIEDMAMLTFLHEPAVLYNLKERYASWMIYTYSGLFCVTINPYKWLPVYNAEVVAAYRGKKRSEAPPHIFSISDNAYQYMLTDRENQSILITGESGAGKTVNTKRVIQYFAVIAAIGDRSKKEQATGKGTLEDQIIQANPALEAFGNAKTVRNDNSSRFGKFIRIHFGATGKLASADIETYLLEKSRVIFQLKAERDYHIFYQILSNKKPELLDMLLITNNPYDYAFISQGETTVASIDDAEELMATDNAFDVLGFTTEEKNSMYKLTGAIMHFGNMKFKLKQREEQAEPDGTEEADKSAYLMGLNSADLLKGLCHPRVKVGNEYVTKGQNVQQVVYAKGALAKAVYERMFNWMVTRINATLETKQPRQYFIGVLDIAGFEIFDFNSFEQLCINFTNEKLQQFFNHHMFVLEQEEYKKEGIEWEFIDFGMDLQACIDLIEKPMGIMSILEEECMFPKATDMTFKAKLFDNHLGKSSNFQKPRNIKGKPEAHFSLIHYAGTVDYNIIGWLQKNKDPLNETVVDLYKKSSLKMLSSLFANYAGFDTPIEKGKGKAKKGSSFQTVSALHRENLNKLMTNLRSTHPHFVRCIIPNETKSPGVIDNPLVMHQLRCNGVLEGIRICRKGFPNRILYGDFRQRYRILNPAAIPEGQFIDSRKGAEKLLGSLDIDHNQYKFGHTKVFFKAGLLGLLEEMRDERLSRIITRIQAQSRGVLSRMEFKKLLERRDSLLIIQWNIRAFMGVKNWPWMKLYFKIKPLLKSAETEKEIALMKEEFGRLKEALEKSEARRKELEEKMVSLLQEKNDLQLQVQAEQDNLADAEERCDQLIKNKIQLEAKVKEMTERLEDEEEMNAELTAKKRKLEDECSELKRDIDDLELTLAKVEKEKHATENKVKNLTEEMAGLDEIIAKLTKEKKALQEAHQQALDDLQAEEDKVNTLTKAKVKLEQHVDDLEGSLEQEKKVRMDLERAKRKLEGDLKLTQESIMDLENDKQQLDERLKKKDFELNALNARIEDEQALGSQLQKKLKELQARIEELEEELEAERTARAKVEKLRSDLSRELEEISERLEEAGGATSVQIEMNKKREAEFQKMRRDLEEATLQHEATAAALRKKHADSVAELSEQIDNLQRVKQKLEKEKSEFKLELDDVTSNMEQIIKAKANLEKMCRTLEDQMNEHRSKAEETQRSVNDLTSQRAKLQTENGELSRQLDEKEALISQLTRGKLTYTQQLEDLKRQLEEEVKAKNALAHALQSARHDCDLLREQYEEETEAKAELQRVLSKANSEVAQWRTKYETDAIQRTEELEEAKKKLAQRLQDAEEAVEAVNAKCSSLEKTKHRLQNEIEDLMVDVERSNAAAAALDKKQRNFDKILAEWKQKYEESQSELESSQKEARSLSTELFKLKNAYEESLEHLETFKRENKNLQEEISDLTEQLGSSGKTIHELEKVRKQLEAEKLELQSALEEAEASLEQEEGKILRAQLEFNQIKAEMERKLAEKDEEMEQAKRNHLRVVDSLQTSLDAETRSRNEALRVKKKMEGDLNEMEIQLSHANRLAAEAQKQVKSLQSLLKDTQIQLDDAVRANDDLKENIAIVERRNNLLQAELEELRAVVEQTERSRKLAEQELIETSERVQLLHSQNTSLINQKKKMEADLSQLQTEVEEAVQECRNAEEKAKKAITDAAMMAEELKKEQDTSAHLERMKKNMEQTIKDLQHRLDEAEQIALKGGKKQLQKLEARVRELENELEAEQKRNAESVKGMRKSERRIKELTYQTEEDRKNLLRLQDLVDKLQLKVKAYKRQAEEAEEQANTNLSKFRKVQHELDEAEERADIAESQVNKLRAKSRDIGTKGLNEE
T1 sequence (P85100 whole entry partner): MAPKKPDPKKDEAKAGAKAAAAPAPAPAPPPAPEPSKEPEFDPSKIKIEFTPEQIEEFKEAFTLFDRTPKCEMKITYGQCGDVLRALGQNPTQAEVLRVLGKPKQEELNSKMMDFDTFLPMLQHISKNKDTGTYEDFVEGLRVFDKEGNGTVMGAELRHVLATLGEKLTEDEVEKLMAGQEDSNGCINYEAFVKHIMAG
T1 sequence (Q3SZE5 whole entry partner): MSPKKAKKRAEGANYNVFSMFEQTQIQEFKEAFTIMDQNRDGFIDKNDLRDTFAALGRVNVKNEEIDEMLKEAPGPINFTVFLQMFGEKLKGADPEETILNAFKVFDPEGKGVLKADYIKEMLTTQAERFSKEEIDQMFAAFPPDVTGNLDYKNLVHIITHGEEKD

| CDMF75 IC15 [µM] | IC50 [µM] | SMILES |
| --- | --- | --- |
| 0.4 | 1.51 | C[C@@H](Nc1cnccn1)c1ccc(-c2noc(C3CC3)n2)cc1 [Compound 31, (R)-N-(1-(4-(5-cyclopropyl-1,2,4-oxadiazol-3-yl)phenyl)ethyl)pyrazin-2-amine] |
| 1.2 | 4.7 | Cc1nc(-c2ccc(CNC(=O)Nc3ccccc3)cc2)no1 [Compound 56, 3-[[4-(5-methyl-1,2,4-oxadiazol-3-yl)phenyl]methyl]-1-phenylurea] |
| 1.3 | 7.6 | Cc1nc(-c2ccc(CNc3cnc(C#N)cn3)cc2)no1 [Compound 10, 5-((4-(5-methyl-1,2,4-oxadiazol-3-yl)benzyl)amino)pyrazine-2-carbonitrile] |
| 2.5 | 9.8 | Cc1nc(-c2ccc(CNc3ccnc(Cl)n3)cc2)no1 [Compound 12, 2-chloro-N-(4-(5-methyl-1,2,4-oxadiazol-3-yl)benzyl)pyrimidin-4-amine] |
| 0.3 | 1.5 | C[C@@H](Nc1cnccn1)c1ccc(-c2noc(C(F)F)n2)cc1 [Compound 33, (R)-N-(1-(4-(5-(difluoromethyl)-1,2,4-oxadiazol-3-yl)phenyl)ethyl)pyrazin-2-amine] |
| 1.5 | 5.2 | Cc1nc(-c2ccc(CNc3ccc(Cl)cn3)cc2)no1 [Compound 20, 5-chloro-N-(4-(5-methyl-1,2,4-oxadiazol-3-yl)benzyl)pyridin-2-amine] |
| 0.8 | 4.3 | Cc1nc(-c2ccc(CNc3cnccn3)cc2)no1 [Compound 2, N-(4-(5-methyl-1,2,4-oxadiazol-3-yl)benzyl)pyrazin-2-amine] |
| 6.0 | 25.8 | COC(=O)NCc1ccc(-c2noc(C)n2)cc1 [Compound 54, methyl (4-(5-methyl-1,2,4-oxadiazol-3-yl)benzyl)carbamate] |
| 0.7 | 3 | CC(C)c1nc(-c2ccc([C@@H](C)Nc3cnccn3)cc2)no1 [Compound 35, (R)-N-(1-(4-(5-isopropyl-1,2,4-oxadiazol-3-yl)phenyl)ethyl)pyrazin-2-amine] |
| 0.4 | 1.7 | C[C@@H](Nc1cnccn1)c1ccc(-c2noc(-c3ccsc3)n2)cc1 [Compound 43, (R)-N-(1-(4-(5-(thiophen-3-yl)-1,2,4-oxadiazol-3-yl)phenyl)ethyl)pyrazin-2-amine] |
| 7.7 | 30.8 | Cc1nc(-c2ccc(CNC(=O)c3ccnc(N)c3)cc2)no1 [Compound 60, 2-amino-N-[[4-(5-methyl-1,2,4-oxadiazol-3-yl)phenyl]methyl]pyridine-4-carboxamide] |
| 3.6 | 27.7 | Cc1nc(-c2ccc(CNc3ccncn3)cc2)no1 [Compound 3, N-(4-(5-methyl-1,2,4-oxadiazol-3-yl)benzyl)pyrimidin-4-amine] |
| – | 3.7 | Cc1nc(-c2ccc(CNc3cc(C(F)(F)F)ncn3)cc2)no1 [Compound 5, N-(4-(5-methyl-1,2,4-oxadiazol-3-yl)benzyl)-6-(trifluoromethyl)pyrimidin-4-amine] |
| 5.0 | 23 | Cc1cc(-c2ccc(CNc3cc[nH]n3)cc2)no1 [Compound 62, N-(4-(5-methylisoxazol-3-yl)benzyl)-1H-pyrazol-3-amine] |
| 0.4 | 2.1 | Cc1noc(-c2ccc(CNc3cc(Cl)ncn3)cc2)n1 [Compound 18, 6-chloro-N-(4-(3-methyl-1,2,4-oxadiazol-5-yl)benzyl)pyrimidin-4-amine] |
| 3.4 | 15.1 | Cc1nc(-c2ccc(CNC(=O)c3ccccc3)cc2)no1 [Compound 50, N-(4-(5-methyl-1,2,4-oxadiazol-3-yl)benzyl)benzamide] |
| 1.9 | 6.6 | Cc1cc(NCc2ccc(-c3noc(C)n3)cc2)ncn1 [Compound 4, 6-methyl-N-(4-(5-methyl-1,2,4-oxadiazol-3-yl)benzyl)pyrimidin-4-amine] |
| 1.1 | 4.5 | FCc1nc(-c2ccc(CNc3cnccn3)cc2)no1 [Compound 25, N-(4-(5-(fluoromethyl)-1,2,4-oxadiazol-3-yl)benzyl)pyrazin-2-amine] |

| CDMF75 IC15 [µM] | IC50 [µM] | SMILES |
| --- | --- | --- |
| 4.6 | 20.9 | Cc1nc(-c2ccc(CNc3ccc(C#N)cn3)cc2)no1 [Compound 14, 6-((4-(5-methyl-1,2,4-oxadiazol-3-yl)benzyl)amino) nicotinonitrile] |
| 8.1 | 38.9 | Cc1cnn(-c2ccc(CNc3cnccn3)cc2)c1 [Compound 29, N-(4-(4-methyl-1H-pyrazol-1-yl)benzyl)pyrazin-2-amine] |
| 3.0 | 19.1 | Cc1cc(-c2nc(-c3ccc([C@@H](C)Nc4cnccn4)cc3)no2)on1 [Compound 38, (R)-N-(1-(4-(5-(3-methylisoxazol-5-yl)-1,2,4-oxadiazol-3-yl)phenyl)ethyl)pyrazin-2-amine] |
| >39.2 | > 39.2 | COc1cccc(NCc2ccc(-c3cc(C)on3)cc2)n1 [Compound 71, 6-methoxy-N-[[4-(5-methyl-1,2-oxazol-3-yl)phenyl]methyl]pyridin-2-amine] |
| 3.1 | 16.6 | CCc1cc(NCc2ccc(-c3noc(C)n3)cc2)ncn1 [Compound 8, 6-ethyl-N-(4-(5-methyl-1,2,4-oxadiazol-3-yl)benzyl)pyrimidin-4-amine] |
| 0.2 | 0.7 | CCc1nc(-c2ccc(CNc3cc(C#N)ncn3)cc2)no1 [Compound 11, 6-((4-(5-ethyl-1,2,4-oxadiazol-3-yl)benzyl)amino)pyrimidine-4-carbonitrile] |
| 2.2 | 12.8 | Cc1nc(-c2ccc(C(C)Nc3cc(Cl)ncn3)cc2)no1 (stereo not drawn) [Compound 21, 6-chloro-N-(1-(4-(5-methyl-1,2,4-oxadiazol-3-yl)phenyl)ethyl)pyrimidin-4-amine] |
| 2.4 | 10.2 | Cc1cc(-c2ccc(CNc3cccc(=O)[nH]3)cc2)no1 [Compound 61, 6-([[4-(5-methyl-1,2-oxazol-3-yl)phenyl]methyl]amino)-1,2-dihydropyridin-2-one] |
| 0.3 | 1.2 | Cc1nc(-c2ccc(CNc3cc(Cl)ncn3)cc2)no1 [Compound 9, 6-chloro-N-(4-(5-methyl-1,2,4-oxadiazol-3-yl)benzyl)pyrimidin-4-amine] |
| 0.3 | 1.1 | C[C@@H](Nc1cnccn1)c1ccc(-c2noc(-c3cccs3)n2)cc1 [Compound 40, (R)-N-(1-(4-(5-(thiophen-2-yl)-1,2,4-oxadiazol-3-yl)phenyl)ethyl)pyrazin-2-amine] |
| 3.1 | 17.3 | Cc1nc(-c2ccc(CNc3cnc(C(F)(F)F)cn3)cc2)no1 [Compound 16, N-(4-(5-methyl-1,2,4-oxadiazol-3-yl)benzyl)-5-(trifluoromethyl)pyrazin-2-amine] |
| 0.9 | 4 | Fc1cc(-c2noc(C(F)(F)F)n2)ccc1CNc1cnccn1 [Compound 45, N-(2-fluoro-4-(5-(trifluoromethyl)-1,2,4-oxadiazol-3-yl)benzyl)pyrazin-2-amine] |
| 0.4 | 2.2 | COc1cnc(NCc2ccc(-c3cc(C)on3)cc2)cn1 [Compound 67, 5-methoxy-N-(4-(5-methylisoxazol-3-yl)benzyl)pyrazin-2-amine] |
| >39.2 | > 39.2 | Cc1cc(-c2ccc(CNc3cc(=O)cc[nH]3)cc2)no1 [Compound 68, 2-([[4-(5-methyl-1,2-oxazol-3-yl)phenyl]methyl]amino)-1,4-dihydropyridin-4-one] |
| 0.3 | 1.4 | c1cnc(NCc2ccc(-c3noc(C4CCC4)n3)cc2)cn1 [Compound 23, N-(4-(5-cyclobutyl-1,2,4-oxadiazol-3-yl)benzyl)pyrazin-2-amine] |
| – | 1.8 | Cc1nc(-c2ccc(CNc3cc(C#N)ncn3)cc2)no1 [Compound 7, 6-((4-(5-methyl-1,2,4-oxadiazol-3-yl)benzyl)amino)pyrimidine-4-carbonitrile] |
| 7.6 | > 39.2 | Cc1cc(-c2ccc(CNc3cc(=O)[nH]cn3)cc2)no1 [Compound 65, 6-((4-(5-methylisoxazol-3-yl)benzyl)amino)pyrimidin-4(3H)-one] |
| 0.3 | 1.7 | Fc1cc(-c2noc(C3CC3)n2)ccc1CNc1cnccn1 [Compound 47, N-(4-(5-cyclopropyl-1,2,4-oxadiazol-3-yl)-2-fluorobenzyl)pyrazin-2-amine] |

| SMILES | CDMF75 IC15 [µM] | IC50 [µM] |
| --- | --- | --- |
| Cc1nc(-c2ccc(CNC(=O)Oc3ccccc3)cc2)no1 [Compound 58, phenyl (4-(5-methyl-1,2,4-oxadiazol-3-yl)benzyl)carbamate] | 2.3 | 11.4 |
